{
  "source": "patent US12215084B2",
  "about": "“2(1H)-pyridinones and their use to treat inflammatory conditions” (Conopco, Inc., priority 2019, dated 2025)",
  "key": {"[1]": {"tested_on": "THP1-XBlue™ cells", "test": "Anti-inflammation efficacy in THP-1 in vitro assay (LPS co-treatment, IL-6 ELISA)", "assay_type": "cell-based", "details": "co-treated with E. coli LPS, PMA-differentiated THP1-XBlue cells, 24 hours, supernatant ELISA, LPS alone 3253.4", "description": "The following procedure was used to test the anti-inflammation efficacy of the compound:\nTHP1-XBlue™ (Cat No: thpx-sp, InvivoGen) cells were cultured as suspense in RPMI 1640 medium supplemented with 10% FBS, penicillin (10 U/mL)—streptomycin (10 μg/ML). Cells were differentiated in 24-well plates at the density of 5×10^5 cells/well with 100 nM PMA for 72 hours. Cells were then co-treated with pure E. coli ipopolysaccharides (LPS) and with the compound inside the invention. After 24 hours, the supernatants were collected and measured for interleukin (IL)-6 as pro-inflammatory bio-marker using enzyme-linked immunosorbent assay (ELISA)."}, "[2]": {"test": "Octopirox® degradation under cool white light", "assay_type": "physicochemical", "details": "cool white light (indoor light), 24 hours, room temperature, LCMS / UPLC-UV", "description": "Cool White Light Treatment:\nThe cool white light (CWL) irradiation was carried out in an X-Rite (Macbeth) Spectra Light III chamber. CWL mode was chosen which provides stable irradiation mimicking the indoor light. The intensity of light was fixed which estimated at 6 μw/cm2 for UVA and 1.5 μw/cm^2 for UVB. The chamber temperature was equal to the room temperature ([…]). The sample was placed in a line close to the center of the chamber. After 24 hours, the sample was analyzed by LCMS (Water UPLC coupled with Quatro Micro MS)., by quantitatively measured using UPLC-UV analysis following DPS derivatization.\nThe separation was performed by a UPLC BEH C18 column and the mobile phase was acetonitrile/water (60/40, 0.1% formic acid) in isocratic elution. Electrospray ionization in positive mode was applied for MS scan."}, "[3]": {"details": "background statement (well known; Clariant introduction), cited from earlier work"}},
  "note": "Read-outs that look alike come from different tables or passages of the source.",
  "data": [
    {"compound": "Cc1cc(O)nc(CC(C)CC(C)(C)C)c1", "note": "(centres unmarked) [the compound]", "values": [
      {"measurement": "Concentration of IL-6", "setting": "[1]; 5 μM of the compound", "result": 3083.3, "unit": "pg/mL"},
      {"measurement": "Concentration of IL-6", "setting": "[1]; 10 μM of the compound", "result": 1405.3, "unit": "pg/mL"}
    ]},
    {"compound": "Cc1cc(CC(C)CC(C)(C)C)n(O)c(=O)c1.NCCO", "note": "(centres unmarked) [Octopirox®, piroctone olamine]", "values": [
      {"measurement": "quantity of Octopirox® after cool white light irradiation", "setting": "[2]", "result": "reduced"},
      {"measurement": "light stability", "setting": "[3]", "result": "unstable under light"},
      {"measurement": "light stability", "setting": "[3]; listed as piroctone olamine", "result": "light instable"}
    ]}
  ]
}
